Patent publication US20250361209A1, “CRYSTAL FORMS OF N-(3-FLUOROPHENYL)-6-(6,7-DIMETHOXYQUINOLIN-4-OXY)-3,4-DIHYDROQUINOLINE-1(2H)-CARBOXAMIDE METHANESULFONATE AND PREPARATION METHOD THEREOF” (Shanghai Yi Feng Biotechnology Co., Ltd., priority 2023, published 2025)
Read-outs that look alike come from different tables or passages of the source.

Key:
[1] = Test of influencing factors of crystalline forms A, B and C (total impurity); type: physicochemical; details: methanesulfonate
Excerpt: Example 3 Test of Influencing Factors of Crystalline Forms A, B and C

[2] = Comparison of oral absorption of K-13 (free base) and its methanesulfonate, plasma concentration-time and PK; type: in vivo, BALB/c mice; details: 10 mg · kg^−1 PO; for concentration at 8 h / concentration at 24 h / concentration at 0 h: 10 mg · kg^−1, BALB/c mice
Excerpt: Comparison of oral absorption of K-13 (free base) and its methanesulfonate (N-(3-fluorophenyl)-6-(6. 7-dimethoxyquinolin-4-oxy)-3.4-dihydroquinoline-1(2H)-carboxamide methanesulfonate)

[3] = BALB/c mice, analyte K-13-1, methanesulfonate

COc1cc2nccc(Oc3ccc4c(c3)CCCN4C(=O)Nc3cccc(F)c3)c2cc1OC [Crystalline form A, N-(3-fluorophenyl)-6-(6,7-dimethoxyquinolin-4-oxy)-3,4-dihydroquinoline-1(2H)-carboxamide methanesulfonate]
Total impurity % ([1]; High humidity (RH75%), 0 day): 0.91% | Total impurity % ([1]; High humidity (RH75%), 5 days): 0.92% | Total impurity % ([1]; High humidity (RH75%), 10 days): 0.99% | Total impurity % ([1]; High humidity (RH75%), 30 days): 1.25% | Total impurity % ([1]; High temperature (60° C.), 0 day): 0.91% | Total impurity % ([1]; High temperature (60° C.), 5 days): 4.50% | Total impurity % ([1]; High temperature (60° C.), 10 days): 6.96% | Total impurity % ([1]; Illumination (5000 + 500 lux), 0 day): 0.91% | Total impurity % ([1]; Illumination (5000 + 500 lux), 5 days): 1.89% | Total impurity % ([1]; Illumination (5000 + 500 lux), 10 days): 3.70% | Total impurity % ([1]; Illumination (5000 + 500 lux), 30 days): 4.21%

COc1cc2nccc(Oc3ccc4c(c3)CCCN4C(=O)Nc3cccc(F)c3)c2cc1OC [K-13-1, N-(3-fluorophenyl)-6-(6,7-dimethoxyquinolin-4-oxy)-3,4-dihydroquinoline-1(2H)-carboxamide]
plasma Concentration of K-13-1, PO-1 ([2]; BALB/c mice, 0.083 h, animal PO-1): 29.6 ng/mL | plasma Concentration of K-13-1, PO-2 ([2]; BALB/c mice, 0.083 h, animal PO-2): 46.6 ng/mL | plasma Concentration of K-13-1, Mean ([2]; BALB/c mice, 0.083 h, mean): 38.1 ng/mL | plasma Concentration of K-13-1, PO-1 ([2]; BALB/c mice, 0.25 h, animal PO-1): 186 ng/mL | plasma Concentration of K-13-1, PO-2 ([2]; BALB/c mice, 0.25 h, animal PO-2): 215 ng/mL | plasma Concentration of K-13-1, Mean ([2]; BALB/c mice, 0.25 h, mean): 201 ng/mL | plasma Concentration of K-13-1, PO-1 ([2]; BALB/c mice, 0.5 h, animal PO-1): 480 ng/mL | plasma Concentration of K-13-1, PO-2 ([2]; BALB/c mice, 0.5 h, animal PO-2): 865 ng/mL | plasma Concentration of K-13-1, Mean ([2]; BALB/c mice, 0.5 h, mean): 673 ng/mL | plasma Concentration of K-13-1, PO-1 ([2]; BALB/c mice, 1 h, animal PO-1): 551 ng/mL | plasma Concentration of K-13-1, PO-2 ([2]; BALB/c mice, 1 h, animal PO-2): 420 ng/mL | plasma Concentration of K-13-1, Mean ([2]; BALB/c mice, 1 h, mean): 485 ng/mL | plasma Concentration of K-13-1, PO-1 ([2]; BALB/c mice, 2 h, animal PO-1): 136 ng/mL | plasma Concentration of K-13-1, PO-2 ([2]; BALB/c mice, 2 h, animal PO-2): 485 ng/mL | plasma Concentration of K-13-1, Mean ([2]; BALB/c mice, 2 h, mean): 311 ng/mL | plasma Concentration of K-13-1, PO-1 ([2]; BALB/c mice, 4 h, animal PO-1): 220 ng/mL | plasma Concentration of K-13-1, PO-2 ([2]; BALB/c mice, 4 h, animal PO-2): 395 ng/mL | plasma Concentration of K-13-1, Mean ([2]; BALB/c mice, 4 h, mean): 308 ng/mL | plasma Concentration of K-13-1, PO-1 ([2]; BALB/c mice, 24 h, animal PO-1): BLOQ | AUC0-inf ([2]; BALB/c mice, analyte K-13-1): 2894 ng·h/mL | AUC0-t ([2]; BALB/c mice, analyte K-13-1): 2870 ng·h/mL | Cmax ([2]; BALB/c mice, analyte K-13-1): 673 ng/mL | Kel ([2]; BALB/c mice, analyte K-13-1): 0.200 h⁻¹ | F (oral bioavailability) ([2]; BALB/c mice, analyte K-13-1, listed as free base): 20% | concentration at 8 h ([2]; BALB/c, mouse, plasma, po, 8 h, animal PO-1, read-out: plasma Concentration of K-13-1, PO-1): 97.2 ng/mL | concentration at 8 h ([2]; BALB/c, mouse, plasma, po, 8 h, animal PO-2, read-out: plasma Concentration of K-13-1, PO-2): 58.8 ng/mL | concentration at 8 h ([2]; BALB/c, mouse, plasma, po, 8 h, mean, read-out: plasma Concentration of K-13-1, Mean): 78 ng/mL | concentration at 24 h ([2]; BALB/c, mouse, plasma, po, 24 h, animal PO-2, read-out: plasma Concentration of K-13-1, PO-2): 4.65 ng/mL | concentration at 24 h ([2]; BALB/c, mouse, plasma, po, 24 h, mean, read-out: plasma Concentration of K-13-1, Mean): 4.65 ng/mL | half-life ([2]; BALB/c, mouse, plasma, po, 10 mg/kg, BALB/c mice, analyte K-13-1): 3.5 h | Tmax ([2]; BALB/c, mouse, plasma, po, 10 mg/kg, BALB/c mice, analyte K-13-1, read-out: Tmax): 0.5 h

COc1cc2nccc(Oc3ccc4c(c3)CCCN4C(=O)Nc3cccc(F)c3)c2cc1OC [K-13-MS-1, N-(3-fluorophenyl)-6-(6,7-dimethoxyquinolin-4-oxy)-3,4-dihydroquinoline-1(2H)-carboxamide methanesulfonate]
increase of in vivo exposure AUClast versus free base ([2]; BALB/c mice): 2.46 times | increase of in vivo exposure Cmax versus free base ([2]; BALB/c mice): 3.14 times | plasma Concentration of K-13-1, PO-1 ([2]; BALB/c mice, 0.083 h, animal PO-1, methanesulfonate): 431 ng/mL | plasma Concentration of K-13-1, PO-2 ([2]; BALB/c mice, 0.083 h, animal PO-2, methanesulfonate): 414 ng/mL | plasma Concentration of K-13-1, Mean ([2]; BALB/c mice, 0.083 h, mean, methanesulfonate): 423 ng/mL | plasma Concentration of K-13-1, PO-1 ([2]; BALB/c mice, 0.25 h, animal PO-1, methanesulfonate): 2175 ng/mL | plasma Concentration of K-13-1, PO-2 ([2]; BALB/c mice, 0.25 h, animal PO-2, methanesulfonate): 2059 ng/mL | plasma Concentration of K-13-1, Mean ([2]; BALB/c mice, 0.25 h, mean, methanesulfonate): 2117 ng/mL | plasma Concentration of K-13-1, PO-1 ([2]; BALB/c mice, 0.5 h, animal PO-1, methanesulfonate): 1868 ng/mL | plasma Concentration of K-13-1, PO-2 ([2]; BALB/c mice, 0.5 h, animal PO-2, methanesulfonate): 1775 ng/mL | plasma Concentration of K-13-1, Mean ([2]; BALB/c mice, 0.5 h, mean, methanesulfonate): 1822 ng/mL | plasma Concentration of K-13-1, PO-1 ([2]; BALB/c mice, 1 h, animal PO-1, methanesulfonate): 1824 ng/mL | plasma Concentration of K-13-1, PO-2 ([2]; BALB/c mice, 1 h, animal PO-2, methanesulfonate): 1317 ng/mL | plasma Concentration of K-13-1, Mean ([2]; BALB/c mice, 1 h, mean, methanesulfonate): 1571 ng/mL | plasma Concentration of K-13-1, PO-1 ([2]; BALB/c mice, 2 h, animal PO-1, methanesulfonate): 922 ng/mL | plasma Concentration of K-13-1, PO-2 ([2]; BALB/c mice, 2 h, animal PO-2, methanesulfonate): 1319 ng/mL | plasma Concentration of K-13-1, Mean ([2]; BALB/c mice, 2 h, mean, methanesulfonate): 1121 ng/mL | plasma Concentration of K-13-1, PO-1 ([2]; BALB/c mice, 4 h, animal PO-1, methanesulfonate): 884 ng/mL | plasma Concentration of K-13-1, PO-2 ([2]; BALB/c mice, 4 h, animal PO-2, methanesulfonate): 981 ng/mL | plasma Concentration of K-13-1, Mean ([2]; BALB/c mice, 4 h, mean, methanesulfonate): 932 ng/mL | plasma Concentration of K-13-1, PO-1 ([2]; BALB/c mice, 8 h, animal PO-1, methanesulfonate): 130 ng/mL | plasma Concentration of K-13-1, PO-2 ([2]; BALB/c mice, 8 h, animal PO-2, methanesulfonate): 89.0 ng/mL | plasma Concentration of K-13-1, Mean ([2]; BALB/c mice, 8 h, mean, methanesulfonate): 109 ng/mL | plasma Concentration of K-13-1, PO-2 ([2]; BALB/c mice, 24 h, animal PO-2, methanesulfonate): BLOQ | plasma Concentration of K-13-1, Mean ([2]; BALB/c mice, 24 h, mean, methanesulfonate): BLOQ | AUC0-inf [2, 3]: 7350 ng·h/mL | AUC0-t [2, 3]: 7051 ng·h/mL | Cmax [2, 3]: 2117 ng/mL | F (oral bioavailability) [2, 3]: 50% | Kel [2, 3]: 0.364 h⁻¹ | T1/2 [2, 3]: 1.9 h | Tmax [2, 3]: 0.25 h | concentration at 0 h ([2]; BALB/c, mouse, plasma, po, animal PO-1, read-out: plasma Concentration of K-13-1, PO-1): 0 ng/mL | concentration at 0 h ([2]; BALB/c, mouse, plasma, po, animal PO-2, read-out: plasma Concentration of K-13-1, PO-2): 0 ng/mL | concentration at 0 h ([2]; BALB/c, mouse, plasma, po, mean, read-out: plasma Concentration of K-13-1, Mean): 0 ng/mL
